# Assay results as given in PubChem BioAssay (NCI).
#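 Tested at 5 concentrations; 48 h exposure; 96-well plates; endpoints linearly interpolated, else capped at highest concentration. At the TGI there is no net growth.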
# Columns and labels:
# Experiment in all cases: NCI tumour cell line growth inhibition, 48 h
# CAKI-1 renal = system: CAKI-1 renal
# K-562 leukemia = system: K-562 leukemia
# SK-MEL-28 melanoma = system: SK-MEL-28 melanoma
# OVCAR-8 ovarian = system: OVCAR-8 ovarian
# SF-539 CNS = system: SF-539 CNS
# PC-3 prostate = system: PC-3 prostate
# UACC-62 melanoma = system: UACC-62 melanoma
# MDA-N = system: MDA-N
# HOP-92 NSCLC = system: HOP-92 NSCLC
# LOX IMVI melanoma = system: LOX IMVI melanoma
SMILES,TGI (CAKI-1 renal),TGI (K-562 leukemia),TGI (SK-MEL-28 melanoma),TGI (OVCAR-8 ovarian),TGI (SF-539 CNS),TGI (PC-3 prostate),TGI (UACC-62 melanoma),TGI (MDA-N),TGI (HOP-92 NSCLC),TGI (LOX IMVI melanoma)
C[C@@]12C[C@@H](c3ccccc3O1)N1CCCCSC1=N2,> 100 µM,> 100 µM,> 100 µM,> 100 µM,> 100 µM,> 100 µM,> 100 µM,> 100 µM,> 100 µM,> 100 µM
Clc1ccc(/C=C/c2nc3ccccc3s2)cc1Cl,48.6 µM,> 100 µM,> 100 µM,> 100 µM,> 100 µM,3.66 µM,> 100 µM,> 100 µM,72.3 µM,3.12 µM
Oc1cc2c3c(c1)c1cc4c(cc1c[n+]3CC2)OCO4,> 50.3 µM,> 100 µM,> 41.8 µM,14.1 µM,> 100 µM,37.3 µM,28.8 µM,> 100 µM,> 75.6 µM,18.4 µM
N=c1n(C(=O)N2CCCC2)c2cc(Cl)ccc2n1C1=NCCN1,> 100 µM,> 100 µM,> 100 µM,> 100 µM,> 100 µM,> 100 µM,> 100 µM,> 100 µM,> 100 µM,> 100 µM
CC1(C)N=C(/C(Cl)=[N+](/[O-])C(=O)c2ccc(F)cc2)C(C)(C)N1O,34.5 µM,17.3 µM,32.4 µM,33.9 µM,40.1 µM,31.3 µM,33 µM,29.9 µM,40 µM,24.3 µM
C=C1c2nc3ccccc3n2C=C(c2ccccc2)N1c1ccc([N+](=O)[O-])cc1,24 µM,58.2 µM,> 65.2 µM,43.4 µM,3.04 µM,68.2 µM,32.3 µM,43.5 µM,21.9 µM,> 100 µM
COc1cc(/C=C2\S/C(=N/Nc3nc(-c4ccc(Br)cc4)cs3)NC2=O)cc(OC)c1OC,46.6 µM,,99.1 µM,29.6 µM,29.1 µM,18.6 µM,25.4 µM,75.1 µM,18.3 µM,33.2 µM
COc1ccc(/C=C2\CCC(C)C3=C2NC(=S)NC3c2ccc(OC)c(OC)c2)cc1OC (stereo not drawn),> 31.6 µM,> 31.6 µM,> 31.6 µM,> 90.2 µM,> 31.6 µM,> 31.6 µM,> 31.6 µM,12.1 µM,> 100 µM,> 31.6 µM
O=[N+]([O-])/C(C(Cl)=C(Cl)Cl)=C(\SCc1ccccc1)N1CCCCC1,> 100 µM,> 100 µM,> 100 µM,54.5 µM,46 µM,74.8 µM,72 µM,50.3 µM,0.529 µM,35 µM
CCC[C@@H](O)C[C@@H]1CCC[C@H](C[C@@H](O)CC)N1C,> 100 µM,> 100 µM,> 100 µM,> 100 µM,> 100 µM,> 100 µM,> 100 µM,> 100 µM,5.06 µM,> 100 µM
NC(=O)C(c1ccccc1)N1OC2C(=O)N(c3ccccc3)C(=O)C2C1c1c2ccccc2c(Cl)c2ccccc12 (stereo not drawn),> 100 µM,> 100 µM,> 100 µM,> 100 µM,> 100 µM,> 100 µM,> 100 µM,> 100 µM,> 100 µM,> 100 µM
C=C(Br)C(C)(Cl)CCC(Br)C(C)(C)Cl (stereo not drawn),> 100 µM,> 100 µM,> 100 µM,> 100 µM,> 100 µM,> 100 µM,> 100 µM,> 100 µM,95.6 µM,38 µM
CN1CCN([C@H]2C[C@H]3[C@@H]4CC=C5C[C@@H](O)CC[C@]5(C)[C@H]4CC[C@]3(C)C2=O)CC1,> 100 µM,> 100 µM,> 100 µM,> 100 µM,> 100 µM,> 100 µM,> 100 µM,> 100 µM,> 100 µM,> 100 µM
CC(C)C1/C(=N/O)CC(c2ccccc2)N(N=O)C1c1ccccc1 (stereo not drawn),89.7 µM,> 100 µM,> 100 µM,> 100 µM,> 100 µM,> 100 µM,45.3 µM,> 100 µM,78.6 µM,> 100 µM
Clc1cc(OC2C3CC4CC(C3)CC2C4)nc(Cl)n1 (stereo not drawn),,24.1 µM,29.1 µM,61.6 µM,38.8 µM,37.9 µM,24.7 µM,53.9 µM,3.41 µM,14.4 µM
CC1=CC2C(O1)C1C(=O)C=CC(=O)C1=CC2[N+](=O)[O-] (stereo not drawn),9.33 µM,> 100 µM,68.4 µM,60.2 µM,96.5 µM,37.9 µM,36.2 µM,65.8 µM,6.2 µM,> 52.3 µM
Cc1cccc(/C=N/NC(=S)Nc2ccccc2)n1,> 42.3 µM,> 100 µM,> 100 µM,8.92 µM,10.4 µM,> 91.1 µM,12.5 µM,> 100 µM,> 92.9 µM,21.4 µM
